Data taken from patent US20220280513A1, “ENHANCING THE ANTIVIRAL EFFICACY OF RNA VIRUS INHIBITION BY COMBINATION WITH MODULATORS OF PYRIMIDINE METABOLISM” (The Board of Trustees of the Leland Stanford Junior …, priority 2019, published 2022).

Biological target: T1, recombinant human UCK2 (Homo sapiens, UniProt Q9BZX2)
T1 construct: 6xHis (C); made in house; host or cells: E. coli BL21(DE3)
T1 sequence (Q9BZX2 1-261): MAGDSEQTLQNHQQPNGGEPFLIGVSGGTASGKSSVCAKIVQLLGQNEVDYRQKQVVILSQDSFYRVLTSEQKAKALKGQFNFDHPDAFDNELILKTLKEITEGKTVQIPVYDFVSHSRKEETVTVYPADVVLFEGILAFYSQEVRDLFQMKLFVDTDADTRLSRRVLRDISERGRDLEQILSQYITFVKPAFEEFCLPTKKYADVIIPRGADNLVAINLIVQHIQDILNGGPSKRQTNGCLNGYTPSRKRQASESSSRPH
Test: In vitro enzyme activity assay with recombinant human UCK2 (PK/LDH-coupled, UV 340 nm)
Assay type: biochemical
Description: In order to guide our SAR studies, we developed an enzymatic assay to evaluate the inhibitory effect of each CPU analog against recombinant human UCK2, which was expressed and purified in E. coli. A continuous assay system was optimized by coupling UCK2 activity to the pyruvate kinase (PK) reaction, which in turn was coupled to lactate dehydrogenase (LDH). Overall reaction progress was continuously monitored by detecting the UV absorption change at 340 nm, which was correlated with the ATP consumption by UCK2. The effect of 250 μM of each CPU analog on UCK2 activity was evaluated in the presence of 50 μM uridine. […] We then individually measured the steady state kinetic parameters of UCK2 using uridine, CPU and 5-F-CPU as substrates. Their KM values were 86, 25, and 41 μM, and their kcat/KM values were 2.6×10^5, 1.5×10^5, and 7.3×10^4 s^−1 M^−1 (FIG. 5B).
Cloning, expression and purification of recombinant human UCK2 and CMPK1: Uridine cytidine kinase 2 (UCK2) was cloned into the pET-21a(+) vector using Ndel and Notl as restriction sites. […] The resulting plasmid was transformed into E. coli BL21(DE3) cells by electroporation, recovered in SOC at 37° C. for 1 h and plated onto LB agar plates with kanamycin overnight at 37° C. A single, isolated colony was inoculated into 30 mL LB supplemented with 50 μg/mL kanamycin and grown at 37° C. with shaking for 15 h. The next day, these cells were used to inoculate 1 L autoclaved LB with 50 μg/mL kanamycin. The flask was shaken at 37° C. When an optical density (OD600) of 0.7 was reached, protein expression was induced with 0.5 mM isopropyl β-D-1-thiogalactopyranoside (IPTG). The temperature was changed to 18° C. and flasks were shaken for an additional 15 h. The cell pellets were collected by spinning the media at 5000 rpm for 10 min. The pellets obtained were frozen by liquid nitrogen and stored in −80° C. for protein purification. Cell pellets were thawed and resuspended in lysis buffer containing Tris (40 mM, pH 7.5), NaCl (10 mM), imidazole (10 mM), DTT (1 mM). Cells were lysed by sonication and centrifuged at 25,000 g for 1 h. The supernatant was incubated with a slurry of Ni-NTA resin for 1 h at 4° C. and loaded onto a column. The nickel column wash buffer was Tris (40 mM, pH 7.5), NaCl (10 mM), DTT (1 mM) and each wash step contained increasing concentrations of imidazole (10, 50, or 250 mM). After SDS-PAGE confirmation of the protein fractions, protein was further purified using fast protein liquid chromatography (FPLC) using buffer A (50 mM Tris-HCl pH 8, 1 mM dithiothreitol (DTT), 10% glycerol) and elution buffer B (50 mM Tris-HCl pH 8, 1mM dithiothreitol (DTT), 10% glycerol with 500 mM NaCl) with changing gradient over a 20 minute from 2% to 100% Buffer B. FPLC eluents containing the protein was concentrated using Am icon centrifugal filter with 3K cut-off and the enzyme was stored in storage buffer (50 mM Tris-HCl pH 7.5, 10% glycerol). Human cytidine monophosphate kinase 1 (CMPK1) was purified as previously described (Deans et al., 2016).
In vitro enzyme activity assays with recombinant human UCK2: To continuously monitor reaction progress spectrophotometrically, ATP hydrolysis was coupled to NADH oxidation via pyruvate kinase (PK) and lactate dehydrogenase (LDH). Reactions were conducted at room temperature in 100 μL in 96-well plates (Greiner Bio-One, UV-Star, Half Area). Mixtures contained 20 mM HEPES (pH 7.2), 100 mM KCl, 2 mM MgCl2, 300 μM ATP, 0-500 μM uridine, 0-500 μM CPU analogs, 10 nM UCK2, 1 mM phosphoenolpyruvate, 500 μM NADH and 20 units/mL of PK and LDH. Progress was monitored in the linear region using a Biotek Synergy HT and kinetic and inhibition constants were determined using GraphPad Prism 7 (GraphPad Software).

## O=c1ccn([C@@H]2C=C(CO)[C@@H](O)[C@H]2O)c(=O)[nH]1 [CPU, 1-((1R,4R,5S)-4,5-dihydroxy-3-(hydroxymethyl)cyclopent-2-en-1-yl)pyrimidine-2,4(1H,3H)-dione]
250 μM analog in the presence of 50 μM uridine
  UCK2 substrate or not (ATP consumption): substrates of UCK2
Added to assay mixture containing UCK2, uridine (50 μM) and ATP
  rate of UMP synthesis: dose-dependent decrease
